Source: patent US6576596B1, “Substituted 2-benzoyl-cyclohexan-1,3-diones with herbicidal effect” (BASF Aktiengesellschaft, priority 1997, dated 2003)

How the values were obtained:
Assay type in all cases: in vivo
Chenopodium album = experiment: greenhouse herbicidal test, post-emergence treatment; conditions: 0.125 or 0.0625 kg/ha (of a.s.), Chenopodium album (lambsquarters)
Excerpt: (§1) The culture containers used were plastic flowerpots containing loamy soil with approximately 3.0% of humus as the substrate. The seeds of the test plants were sown separately for each species.
(§2) For the post-emergence treatment, the test plants were first grown to a plant height of 3 to 15 cm, depending on the plant habit, and only then treated with the active compounds which had been suspended or emulsified in water. The test plants for this purpose were either sown directly and grown in the same containers, or they were first grown separately as seedlings and transplanted into the test containers a few days prior to treatment. The rate of application for the post-emergence treatment was 0.125.or 0.0625 kg/ha of a.s. (active substance).
(§3) Depending on the species, the plants were kept at 10-25° C. or 20-35° C. The test period extended over 2 to 4 weeks. During this time, the plants were tended, and their response to the individual treatments was evaluated.
(§4) Evaluation was carried out using a scale from 0 to 100. 100 means no emergence of the plants, or complete destruction of at least the aerial parts, and 0 means no damage, or normal course of growth.
(§5) The plants used in the greenhouse experiments belonged to the following species: […]

Echinochloa crus galli = experiment: as above; conditions: 0.125 or 0.0625 kg/ha (of a.s.), Echinochloa crus galli (barnyardgrass)
Excerpt: as §1, §2, §3, §4, §5

Sinapis alba = experiment: as above; conditions: 0.125 or 0.0625 kg/ha (of a.s.), Sinapis alba (white mustard)
Excerpt: as §1, §2, §3, §4, §5

Zea mays = experiment: greenhouse test, post-emergence treatment, crop tolerance; conditions: 0.125 or 0.0625 kg/ha (of a.s.)
Excerpt: as §1, §2, §3, §4, §5

CCON=Cc1c(S(C)(=O)=O)ccc(C(=O)C2C(=O)CC(C)(C)CC2=O)c1Cl [Compound 2.07, 2-(2-Chloro-3-ethoxyiminomethyl-4-methylsulfonylbenzoyl)-5,5-dimethyl-1,3-cyclohexanedione]
herbicidal activity against harmful plants (Chenopodium album): very good activity | herbicidal activity against harmful plants (Echinochloa crus galli): very good activity | herbicidal activity against harmful plants (Sinapis alba): very good activity | tolerance in crop plant maize (Zea mays): well tolerated
